Data as given in PubChem BioAssay (NCI).
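Method: 48-hour compound exposure of cells in 96-well plates, five concentrations, linear interpolation of endpoints. TGI marks complete inhibition of growth.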

What was measured:
Test in all cases: NCI tumour cell line growth inhibition, 48 h
SW-620 colon = tested on: SW-620 colon
K-562 leukemia = tested on: K-562 leukemia
TK-10 renal = tested on: TK-10 renal
UACC-62 melanoma = tested on: UACC-62 melanoma
SNB-19 CNS = tested on: SNB-19 CNS
M14 melanoma = tested on: M14 melanoma
UACC-257 melanoma = tested on: UACC-257 melanoma
HOP-92 NSCLC = tested on: HOP-92 NSCLC
HCT-15 colon = tested on: HCT-15 colon

Row | Structure (SMILES) | TGI (SW-620 colon) [µM] | TGI (K-562 leukemia) [µM] | TGI (TK-10 renal) [µM] | TGI (UACC-62 melanoma) [µM] | TGI (SNB-19 CNS) [µM] | TGI (M14 melanoma) [µM] | TGI (UACC-257 melanoma) [µM] | TGI (HOP-92 NSCLC) [µM] | TGI (HCT-15 colon) [µM]
1 | O=C1C(Cl)=C(N(C(=O)c2ccccc2)C(=O)c2ccccc2)C(=O)c2ccccc21 | 24.3 | 20.6 | 37.8 | 19.8 | > 100 | > 100 | 28.7 | 34.8 | 9
2 | Nc1ncn2c(n1)nc1ccccc12 | > 100 | > 100 | > 100 | > 100 | > 100 | > 100 | > 100 | > 100 | > 100
3 | COc1ccccc1NC(=O)CC(=O)N1N=C(N2c3ccccc3Sc3ccccc32)CC1c1ccccc1 (stereo unspecified) | > 100 | > 100 | > 100 | > 100 | > 100 | > 100 | > 100 | > 100 | > 100
4 | O=C(N=c1ccc2nc(=O)[nH]n(O)c-2c1)C(F)(F)F | > 100 | > 100 | > 100 | > 100 | > 100 | > 100 | > 100 | – | > 100
5 | CC(C)(C)c1cc(OCc2nn3c(Cc4ccccc4)nnc3s2)c(Cl)cc1OCc1nn2c(Cc3ccccc3)nnc2s1 | > 100 | > 100 | > 100 | > 100 | > 100 | > 100 | 93.1 | 52.9 | > 100
6 | CC(=O)Oc1c2c(c3n(c1=O)CCCC3)C(=O)N(c1ccccc1)C2=O | > 100 | > 100 | > 100 | > 100 | > 100 | > 100 | – | > 100 | > 100
7 | COc1ccc(C2C(C#N)=C(S)N(C3OC(COC(C)=O)C(OC(C)=O)C(OC(C)=O)C3OC(C)=O)C(c3ccccc3)=C2C(C)=O)cc1 (stereo unspecified) | – | > 100 | > 100 | > 100 | > 100 | > 100 | > 100 | > 100 | > 100
8 | C=CCN(CCNS(=O)(=O)c1ccc(C)cc1)S(=O)(=O)c1ccc(C)cc1 | > 100 | > 100 | > 100 | > 100 | > 100 | > 100 | > 100 | > 100 | > 100
9 | Cc1n[nH]c(=O)n1/N=C\c1ccccc1 | > 100 | > 100 | > 100 | > 100 | – | – | > 100 | – | > 100
10 | COc1cc2c3c(n(C)c(=O)c2cc1OC)-c1cc2c(cc1/C3=C\CCCI)OCO2 | > 100 | > 100 | > 85.6 | > 100 | > 100 | > 100 | > 100 | > 100 | > 100
11 | O=c1ccn(C2OC(CO)C(O)C2F)c(=O)n1Cc1ccccc1 (stereo unspecified) | > 100 | > 100 | > 100 | > 100 | > 100 | – | > 100 | – | > 100
12 | NC(CSSCC(N)=NCC12CC3CC(CC(C3)C1)C2)=NCC12CC3CC(CC(C3)C1)C2 | 41.6 | 27.2 | 36.3 | 26.1 | 41.5 | 50.2 | 30.5 | 32.7 | 25
13 | Cc1cc(S(=O)(=O)Nc2nnc3cnc4ccccc4n23)c(S)cc1Cl | > 100 | > 100 | > 100 | > 100 | > 100 | > 100 | > 100 | > 85.9 | > 100
14 | Cc1cc(=O)n2nc(CCl)sc2n1 | 37.5 | 37.7 | 23 | 46.9 | 39 | 23.4 | 25.2 | 28.2 | 27.1
15 | CCOC(=O)c1nc2ccc(C(F)(F)F)cc2nc1Nc1ccc(Cl)c(Cl)c1 | > 100 | > 100 | > 100 | > 100 | 95.7 | > 100 | > 100 | > 100 | > 100
16 | Clc1cccc(NN=Nc2ccc(-c3nc4ccccc4s3)cc2)c1 | > 100 | 92.5 | > 100 | 51.8 | > 100 | > 100 | > 100 | 76.8 | > 100
17 | CCOC(=O)C(NC(=O)c1ccccc1)(N1CCN(c2cc3c(cc2F)c(=O)c(C(=O)O)cn3CC)CC1)C(F)(F)F (stereo unspecified) | > 100 | > 100 | 94.8 | > 100 | > 100 | > 100 | 44.7 | 84.4 | 64.9
18 | Cc1sc2c(c1C)/C(=N\O)c1cccn1-2 | > 100 | – | > 100 | > 100 | 63.2 | > 100 | > 100 | – | > 100
19 | C=C(C)COC1CCCCO1 (stereo unspecified) | > 100 | > 100 | > 100 | > 100 | > 100 | > 100 | > 100 | – | > 100
20 | CCCCCCCCCCCCCCC(O)C[N+](C)(CCO)CCO (stereo unspecified) | 23.7 | > 38.1 | 4.16 | 11.1 | 3.39 | 3.66 | 26.7 | 5.76 | 22
21 | O=c1[nH]cc(Cl)c(=O)[nH]1 | > 100 | > 100 | > 100 | > 100 | > 100 | > 100 | > 100 | > 100 | > 100
22 | CC(=O)Oc1c(N2CCCCC2)c(C(=O)c2ccccc2)c(O)c2ccn(N(C)C)c12 | 35.1 | > 100 | 36.8 | 30.3 | 64.3 | 53.7 | 31.2 | 88.6 | 35.9
23 | Cc1c(N=Nc2ccccc2)c(C)n(C2OC(CO)C(O)C(O)C2O)c(=S)c1C#N (stereo unspecified) | > 100 | > 100 | > 100 | 18.9 | 96.2 | 65.8 | > 100 | 48.9 | > 100
